One data set relates to Mouse STC-1 cells. The data set is described as follows: STC-1 GLP-1 assay (GLP-1 secretion). In kind it is cell-based. The settings on record: Mouse STC-1 cells, GLP-1 secretion, 2 h; read-out: Mouse STC-1 HTRF GLP-1 Activity (EC50). A digest of the protocol:
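Mouse STC-1 cells were plated two days ahead in DMEM with 10% charcoal-dextran stripped FBS, then exposed to compound in HBSS with protease inhibitors, DPP-IV inhibitor and 0.1% fatty acid free BSA for 2 h at 37° C. Active GLP-1 in supernatant was quantified by HTRF; EC50 derived from 12-point half-log curves.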

Data set [1] is described as follows: Pharmacokinetic profile in mice after oral gavage. The data set is classed as in vivo, mouse. The note with it: mouse; fasted male Hilltop mice, 10 mg/kg oral gavage, plasma; read-out: Cmax. The gist of the method: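 Fasted 8-week male Hilltop mice given 10 mg/kg orally in 20% PEG400/80% 0.5% CMC + 0.25% Tween-80. EDTA plasma sampled 0-4 h, measured by LC-MS/MS (MRM, positive ion); Cmax and AUC derived non-compartmentally, values being means of three mice.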

SMILES strings stand for the structures.

As to `O=C(NCCC1CCN(c2cc(N3CCC[C@H]3C(=O)NCCc3ccc(C(F)(F)F)cc3)nc(C(F)(F)F)n2)CC1)NCCS(=O)(=O)O` [Compound 86, (S)-2-(3-(2-(1-(2-(trifluoromethyl)-6-(2-((4-(trifluoromethyl)phenethyl)-carbamoyl)pyrrolidin-1-yl)pyrimidin-4-yl)piperidin-4-yl)ethyl)ureido)-ethanesulfonic acid], the EC50 in the data set on Mouse STC-1 cells was less than 100 nM. In addition, the Cmax in data set [1] was 13 ng/mL.
Turning to `N#Cc1ccc(CCNC(=O)[C@@H]2CCCN2c2cc(N3CCC(CCCC(=O)NCP(=O)(O)O)CC3)nc(C(F)(F)F)n2)cc1` [Compound 64, (S)-((4-(1-(6-(2-((4-cyanophenethyl)carbamoyl)pyrrolidin-1-yl)-2-(trifluoromethyl)pyrimidin-4-yl)piperidin-4-yl)butanamido)methyl)-phosphonic acid], the EC50 with Mouse STC-1 cells fell in the range of 100 to 999 nM. The Cmax in data set [1] was 2.9 ng/mL.
For the compound `N#Cc1ccc(CCNC(=O)[C@@H]2CCCN2c2cc(N3CCC(CCCC(=O)NCCNc4cc(C(=O)O)ncn4)CC3)nc(C(F)(F)F)n2)cc1` [Compound 101, (S)-6-((2-(4-(1-(6-(2-((4-cyanophenethyl)carbamoyl)pyrrolidin-1-yl)-2-(trifluoromethyl)pyrimidin-4-yl)piperidin-4-yl)butanamido)ethyl)amino)-pyrimidine-4-carboxylic acid], the EC50 in the data set with Mouse STC-1 cells was less than 100 nM. In data set [1], the Cmax turned out to be 0.7 ng/mL.
The matching figures for `CS(=O)(=O)NCCNC(=O)CCCC1CCN(c2cc(N3CCC[C@H]3C(=O)NCCc3ccc(C#N)cc3)nc(C(F)(F)F)n2)CC1` [Compound 93]: less than 100 nM and 5 ng/mL.
For `N#Cc1ccc(CCNC(=O)[C@@H]2CCCN2c2cc(N3CCC(CCCC(=O)N[C@@H](CCC(=O)O)C(=O)O)CC3)nc(C(F)(F)F)n2)cc1` [Compound 76, (S)-2-(4-(1-(6-((S)-2-((4-cyanophenethyl)carbamoyl)pyrrolidin-1-yl)-2-(trifluoromethyl)pyrimidin-4-yl)piperidin-4-yl)butanamido)-pentanedioic acid], in the data set with Mouse STC-1 cells, the EC50 lay within 100 to 999 nM. Further, in data set [1], the Cmax was found to be 3 ng/mL.
As for `N#Cc1ccc(CCNC(=O)[C@@H]2CCCN2c2cc(N3CCC(CCCC(=O)NCS(=O)(=O)O)CC3)nc(C(F)(F)F)n2)cc1` [Compound 66, (S)-(4-(1-(6-(2-((4-cyanophenethyl)carbamoyl)pyrrolidin-1-yl)-2-(trifluoromethyl)pyrimidin-4-yl)piperidin-4-yl)butanamido)-methanesulfonic acid], the EC50 in the data set on Mouse STC-1 cells was less than 100 nM. Also, the Cmax in data set [1] amounted to 7.3 ng/mL.
With `N#Cc1ccc(CCNC(=O)[C@@H]2CCCN2c2cc(N3CCC(CCNC(=O)NCCS(N)(=O)=O)CC3)nc(C(F)(F)F)n2)cc1` [Compound 80, (S)-N-(4-cyanophenethyl)-1-(6-(4-(2-(3-(2-sulfamoylethyl)ureido)-ethyl)piperidin-1-yl)-2-(trifluoromethyl)pyrimidin-4-yl)pyrrolidine-2-carboxamide], the EC50 in the data set with Mouse STC-1 cells lay in the range of 100 to 999 nM. The Cmax in data set [1] is 1.2 ng/mL.
Consider `N#Cc1ccc(CCNC(=O)[C@@H]2CCCN2c2cc(N3CCC(CCNC(=O)NCCC(=O)O)CC3)nc(C(F)(F)F)n2)cc1` [Compound 81, (S)-3-(3-(2-(1-(6-(2-((4-cyanophenethyl)carbamoyl)pyrrolidin-1-yl)-2-(trifluoromethyl)pyrimidin-4-yl)piperidin-4-yl)ethyl)ureido)-propanoic acid], for which the EC50 with Mouse STC-1 cells was in the range of 100 to 999 nM. Also, in data set [1], the Cmax turned out to be 60 ng/mL.
For `O=C(CCCC1CCN(c2cc(N3CCC[C@H]3C(=O)NCCc3ccc(C(F)(F)F)cc3)nc(C(F)(F)F)n2)CC1)NCCNc1ncnc2c1ncn2[C@@H]1O[C@H](CO)C(O)C1O` (stereo partly drawn) [Compound 96, (2S)-1-(6-(4-(4-((2-((9-((2R,5R)-3,4-dihydroxy-5-(hydroxymethyl)-tetrahydrofuran-2-yl)-9H-purin-6-yl)amino)ethyl)amino)-4-oxobutyl)piperidin-1-yl)-2-(trifluoromethyl)-pyrimidin-4-yl)-N-(4-(trifluoromethyl)-phenethyl)-pyrrolidine-2-carboxamide], in the data set on Mouse STC-1 cells, the concentration giving a half-maximal response (EC50) was less than 100 nM. The Cmax in data set [1] was found to be 1.1 ng/mL.
`CS(=O)(=O)NCCNC(=O)CCCC1CCN(c2cc(N3CCC[C@H]3C(=O)NCCc3ccc(C(F)(F)F)cc3)nc(C(F)(F)F)n2)CC1` [Compound 91, (S)-1-(6-(4-(4-((2-(methylsulfonamido)ethyl)amino)-4-oxobutyl)piperidin-1-yl)-2-(trifluoromethyl)pyrimidin-4-yl)-N-(4-(trifluoromethyl)phenethyl)pyrrolidine-2-carboxamide]: in the data set on Mouse STC-1 cells, the EC50 was less than 100 nM. The Cmax in data set [1] was 10 ng/mL.
On to `N#Cc1ccc(CCNC(=O)[C@@H]2CCCN2c2cc(N3CCC(COCC(=O)O)CC3)nc(C(F)(F)F)n2)cc1` [Compound 88, (S)-2-((1-(6-(2-((4-cyanophenethyl)carbamoyl)pyrrolidin-1-yl)-2-(trifluoromethyl)pyrimidin-4-yl)piperidin-4-yl)methoxy)acetic acid], for which, in the data set with Mouse STC-1 cells, the EC50 lay in the range of 100 to 999 nM. Moreover, in data set [1], the Cmax was determined as 630 ng/mL.
`N#Cc1ccc(CCNC(=O)[C@@H]2CCCN2c2cc(N3CCC(CCCC(=O)N[C@@H](CCCNC(=N)N)C(=O)O)CC3)nc(C(F)(F)F)n2)cc1` [Compound 72, (S)-2-(4-(1-(6-((S)-2-((4-cyanophenethyl)carbamoyl)pyrrolidin-1-yl)-2-(trifluoromethyl)pyrimidin-4-yl)piperidin-4-yl)butanamido)-5-guanidinopentanoic acid]: in the data set on Mouse STC-1 cells, the EC50 was 100 to 999 nM. Besides, the Cmax in data set [1] worked out at 1.6 ng/mL.
Regarding `N#Cc1ccc(CCNC(=O)[C@@H]2CCCN2c2cc(N3CCC(CCNC(=O)NCCS(=O)(=O)O)CC3)nc(C(F)(F)F)n2)cc1` [Compound 78, (S)-2-(3-(2-(1-(6-(2-((4-cyanophenethyl)carbamoyl)pyrrolidin-1-yl)-2-(trifluoromethyl)pyrimidin-4-yl)piperidin-4-yl)ethyl)ureido)ethanesulfonic acid], the EC50 with Mouse STC-1 cells is less than 100 nM. Also, in data set [1], the Cmax came to 1.3 ng/mL.
Regarding `N#Cc1ccc(CCNC(=O)[C@@H]2CCCN2c2cc(N3CCC(CO)CC3)nc(C(F)(F)F)n2)cc1` [Compound 1, (S)—N-(4-cyanophenethyl)-1-(6-(4-(hydroxymethyl)piperidin-1-yl)-2-(trifluoromethyl)pyrimidin-4-yl)pyrrolidine-2-carboxamide], the EC50 with Mouse STC-1 cells lay in the range of 100 to 999 nM. The Cmax in data set [1] is 233 ng/mL.
In the same order, the values of `N#Cc1ccc(CCNC(=O)[C@@H]2CCCN2c2cc(N3CCC(CCCC(=O)NCC(N)=O)CC3)nc(C(F)(F)F)n2)cc1` [Compound 68, (S)-1-(6-(4-(4-((2-amino-2-oxoethyl)amino)-4-oxobutyl)piperidin-1-yl)-2-(trifluoromethyl)pyrimidin-4-yl)-N-(4-cyanophenethyl)pyrrolidine-2-carboxamide] are 100 to 999 nM and 15 ng/mL.

The record behind these values is US10654834B2 (Venenum Biodesign, LLC, priority 2016, dated 2020).
